In patent US8936809B2, “Method for treating prostate diseases based on local delivery of active substances” (Lidds AB, priority 2005, dated 2015):
Where two headings read alike, the source gives them in different places.

Assays:
[1] = Plasma pharmacokinetics and tissue level after local administration of ceramic-based controlled release composition into dog prostate (Example 1); assay type: in vivo
Description: One week later, the same animals were given 2-hydroxy-flutamide locally by a controlled release pharmaceutical composition in the prostate tissue. The 2-hydroxy- flutamide doses were 0 mg (H1), 30 mg (H3), 60 mg (H2) and 120 mg (H4), and each dog was given one implant only. Where H1 was a control given the composition without 2-hydroxy-flutamide. All doses of 2-hydroxy-flutamide were given after an overnight fast. Dog 1 (H1) and dog 3 (H3) were given an enema preoperatively. After the local prostate application of the pharmaceutical composition through rectum, an antibiotic (Quinolon) was administered in normal doses.
The controlled release pharmaceutical composition was composed of a calcium sulphate ceramic and 2-hydroxy-flutamide (Catalogue No. 161.01, from Micromol). To prepare the implant, a calcium sulfate hemi-hydrate (Calcium Sulfate-0.5-hydrate, Product No. 12090, from Riedel-de Haen) is mixed as a fine-grained powder with water and the active agent to form an injectable paste. The paste solidifies in-vivo in about 5 minutes to a solid implant. The ceramic powder to water ratio is 1:2 and the dose of active agent (30, 60 or 120 mg) is mixed with a total 0.8 ml of paste.
The controlled release pharmaceutical composition was inserted locally into the prostate tissue through needles by ultrasound guidance. The animals were under general anesthesia during the insertion procedure. The needle (15 cm long with an outer diameter of 0.9 mm) was inserted into the prepared rectum (an enema was given preoperatively) and was inserted through the rectal and abdominal wall and positioned in the prostate tissue by ultrasound guidance. The pharmaceutical composition was given as multiple thin strings of approximately 12 mm length and with a diameter of 1-2 mm.
After administration of the controlled release pharmaceutical composition in the prostate tissue, blood samples were taken during 3 weeks. Samples of 1.0 ml were taken from the Cephalic vein at day 0, after 6 hours and then in the morning at day 1, 2, 3, 4, 5, 6, 9, 12, 14, 16, 19 and 20 following the administration of the implant. The blood samples were immediately centrifuged at 3000 rpm and the plasma samples were frozen at −20° C. until analysis.
After day 20, each dog was terminated with an intravenous dose of a mixture of pentobarbital and potassium. The following organs were surgical removed and frozen: prostate, testis, liver and kidney for the assessment of effect and safety. These organs were carefully examined as a consequence of the local tissue exposure of 2-hydroxy-flutamide and the ceramic-based implant.
Quantification of 2-hydroxy-flutamide in plasma and tissue samples was done by HPLC-MS. HPLC was performed with a Surveyor HPLC system equipped with a CTC Pal autosampler. The analytical column was a Zorbax Eclipse XDB-18 (2.1 mm×50 mm, particle size 5 μm) connected to a guard column. The eluent consisted of solvent A (aqueous formic acid 0.1%) and B (acetonitrile), a linear gradient from 25 to 90% of solvent B in 5 minutes was applied. The proportion of solvent B was then lowered to 25% in one minute and was allowed to equilibrate at this level for two minutes prior to the next injection. The volumetric flow-rate was 200 μL/min and the injection volume was 20 μL. The HPLC column outlet was coupled to a TSQ Quantum Ultra tandem triple quadrupole mass spectrometer (ThermoFinnigan, San José, Calif., USA). The transition of m/z 291 [M-H]^−→205 was used for 2-hydroxy-flutamide and m/z 316 [M-H]^−→273 was used for nilutamide (internal standard). The limit of quantification was 0.50 ng/ml in dog plasma. Calibration samples were prepared by spiking blank plasma samples with 100 μL of solutions of 2-hydroxy-flutamide at different concentrations. […]

[2] = system: prostate tissue; experiment: Efficacy and safety of local prostate implant in male beagle dogs: side effects, urinated volume, histopathology (Example 3); assay type: in vivo, dog
Description: The major purpose of the present animal study was to examine the efficacy and safety of the new local drug delivery system with 2-hydroxyflutamide, a selective antagonist of the androgen receptor (AR) as the active moiety in human prostate tissue during various treatment periods in male dogs. The dog has been selected as the test model because of its proven suitability in this type of study. The study was performed in 12 male beagle dogs from Harlan Winkelmann GmbH, Germany. The sterile controlled release implant was composed of ceramic compounds and 2-hydroxyflutamide. Storage and handling instructions were given. The composition of the formulation of the low and high dose was 250 mg of 2-hydroxyflutamide +2.25 g calcium sulphate […] +5.0 g calcium sulphate hemi-hydrate and it was mixed with solution: 3.5 ml of water solution (with 1% acetic acid and 1% methyl cellulose). The final formulation work was done during sterile conditions by trained personal at the experimental day. […] The animals were fasted for at least 12 hours prior to the insertion procedure on Day 1. The implant drug delivery system was inserted locally into the prostate tissue, via rectum, through sterile needles during rectal ultrasound guidance. Each animal was under anesthesia during the insertion procedure.

[3] = male, Labrador, plasma, dog H2, 60 mg local prostate implant
[4] = male, Labrador, plasma, dog H3, 30 mg local prostate implant
[5] = male, Labrador, plasma, dog H4, 120 mg local prostate implant
[6] = local prostate implant 250 mg or 500 mg

## CC(C)(O)C(=O)Nc1ccc([N+](=O)[O-])c(C(F)(F)F)c1 [2-hydroxy-flutamide]
[1]; dogs, after three weeks of treatment with local implant
  concentration in the prostate tissue: not possible to quantify
[1]; dogs, i.v. 25 mg versus local implant 120 mg
  Cmax after intravenous dosing relative to Cmax after local implant dosing: about 6 times
[1]; male, Labrador, dog, plasma, 30 mg, dog H3, 30 mg local prostate implant, read-out: t1/2 (converted)
  half-life: 35 h
[1]; male, Labrador, dog, plasma, 60 mg, dog H2, 60 mg local prostate implant, read-out: t1/2 (converted)
  half-life: 45 h
[1]; male, Labrador, dog, plasma, 120 mg, dog H4, 120 mg local prostate implant, read-out: t1/2 (converted)
  half-life: 41 h
[1]; male, Labrador, dog, plasma, 120 mg, given in the ceramic composition, three dosed dogs (30, 60, 120 mg), read-out: elimination half-life
  half-life: 35 to 45 h
[1]; male, Labrador, dog, plasma, dogs, local prostate implant, on average, read-out: bioavailability from the intraprostate tissue (approximation)
  bioavailability: > 100%
[1]; [3]
  AUC: 4020 ng·h/mL
  Cmax: 69.5 ng/mL
  Tmax: 6 h
[1]; [4]
  AUC: 990 ng·h/mL
  Cmax: 26.4 ng/mL
  Tmax: 6 h
[1]; [5]
  AUC: 9410 ng·h/mL
  Cmax: 142 ng/mL
  Tmax: 24 h
[2]; [6]
  diarrhea: no diarrhea observed
  effect of the treatment on the urinated volume: no effect
  side-effects: no side-effects were observed
[2]; treated groups, local prostate implant
  microscopic findings of the prostate tissue (histopathology): increased incidence of vacuolation and cystic acini
